Measurements from patent US20260125374A1, “PI3K-ALPHA INHIBITORS AND METHODS OF MAKING AND USING THE SAME” (Relay Therapeutics, Inc., priority 2021, published 2026).
Marks after values point to notes of the source that are not given here.

Tests used:
[1] = Stability of the process (III-1 in solution); assay type: physicochemical
[2] = Polymorph screening (equilibration, anti-solvent, slow evaporation, slow cooling, temperature cycling, heating-cooling; XRPD and SFC); assay type: physicochemical
Description: This polymorph screening program of compound I-1 free form was performed with two batches of the pure enantiomer. Both batches are crystalline and is assigned as Form A. The polymorphic behaviors of the enantiomer were investigated by equilibration at 25° C. and 50° C., equilibration under a temperature cycle, crystallization from hot saturated solutions by slow cooling, slow evaporation, precipitation by addition of anti-solvent, and DSC heating-cooling cycle experiments. Relative stability of identified polymorphs was investigated by competitive slurry experiments.
About 50 mg of I-1 Form A was weighed into a 2 mL glass vial and equilibrated in suitable amount of solvents (pretreated by molecular sieves) at 25° C. for 2 weeks with a stirring plate and with protection from light. Obtained suspensions were filtered with 0.45 μm nylon membrane and the solid parts (wet cake) were investigated by XRPD. When differences were observed, additional investigations were performed (e.g. DSC, TGA, ^1H-NMR, SFC).
About 50 mg of I-1 Form A was weighed into 2 mL glass vials and equilibrated in suitable amount of solvents (pretreated by molecular sieves) at 50° C. for 10 days with a stirring plate and with protection from light. Obtained suspensions were filtered with 0.45 μm nylon membrane and the solid parts (wet cake) were investigated by XRPD. When differences were observed, additional investigation was performed (e.g. DSC, TGA, ^1H-NMR, SFC).
I-1 Form A was dissolved in a good solvent. […] The solvents used were pretreated by molecular sieve. Precipitates were collected by filtration. The solid part (wet cake) was investigated by XRPD. […] When differences were observed, additional investigations were performed (e.g. DSC, TGA, ^1H-NMR, SFC).
Based on approximate solubility results, I-1 Form A was dissolved in suitable amount of solvents (pretreated by molecular sieves). Obtained solutions were filtered by 0.45 μm nylon filter. […] Solid residues were examined for their polymorphic form. When differences were observed, additional investigations were performed (e.g. DSC, TGA, ^1H-NMR, SFC).
Approximate 50 mg of batch I-1 Form A were dissolved in the minimal amount of selected solvents (without pretreatment by molecular sieves) at 50° C. Obtained solutions were filtered by 0.45 μm nylon filter. […] Precipitates were collected by filtration. The solid parts (wet cake) were investigated by XRPD. When differences were observed, additional investigations were performed (e.g. DSC, TGA, ^1H-NMR, SFC). When no precipitation was obtained or only a few solids were obtained, the solutions were placed at 5° C. for crystallization.
About 50 mg of I-1 Form A was equilibrated in different solvents (pretreated by molecular sieves) under a temperature cycle between 5° C. to 50° C. at a heating/cooling rate of 0.2° C./min for 10 cycles and with protection from light. After 10 cycles, precipitates were collected at 5° C. by filtration. The solid parts (wet cake) were investigated by XRPD. When differences were observed, additional investigations were performed (e.g. DSC, TGA, 1H-NMR, SFC).
Polymorphic behavior of I-1 Form A was investigated by two different heating-cooling cycles of DSC. Cycle 1:30° C. to 280° C. at 10° C./min; 280° C. to −20° C. at 20° C./min; reheat to 300° C. at 10° C./min. Cycle 2:30° C. to 280° C. at 10° C./min; 280° C. to-20° C. at 2° C./min; reheat to 300° C. at 10° C./min.

[3] = Solubility in DCM/Methanol mixtures; assay type: physicochemical
Description: The solubility was evaluated on various ratio of DCM and Methanol mixtures.

[4] = Stability of III-1 & I-1 solid; assay type: physicochemical; details: after 38 days; initial 99.0%
[5] = tested on: PIK3CA-mediated AKT phosphorylation in MCF10A cells overexpressing hotspot PIK3CA mutations (H1047R, E542K, E545K); assay: MCF10A Cell-Based PIK3CA Kinase Assay (CisBio Phospho-AKT (Ser473) HTRF assay); details: Homo sapiens, MCF-10A, 2 hours compound incubation, read-out: Cell - PD - MCF10A H1047R/−−2483 (IC50)
Description: Selected compounds of the present disclosure were tested in a MCF10A Cell-Based PIK3CA Kinase Assay, namely the CisBio Phospho-AKT (Ser473) HTRF assay, to measure the degree of PIK3CA-mediated AKT phosphorylation. MCF10A cells (immortalized non-transformed breast cell line) overexpressing hotspot PIK3CA mutations (including H1047R, E542K, and E545K mutations) were used. Cells were seeded at 5,000 cells per well in DMEM/F12 (Thermo Fisher Scientific) supplemented with […], 100 ng/ml Cholera Toxin, 10 μg/mL insulin, and 0.5% horse serum. Once plated, cells were placed in a 5% CO2, 37° C. incubator to adhere overnight.
The following day, compounds were added to the cell plates in 12 doses of 1:3 serial dilutions. The dose response curves were run in duplicate. Compound addition was carried out utilizing an Echo 55 Liquid Handler acoustic dispenser (Labcyte). The cell plates were incubated for 2 hours in a 5% CO2, 37° C. incubator. Following compound incubation, the cells were lysed for 60 min at room temperature. Finally, a 4-hour incubation with the HTRF antibodies was performed at room temperature. All reagents, both lysis buffer and antibodies, were used from the CisBio pAKT S473 HTRF assay kit, as per the manufacturers protocol. Plates were read on an Envision 2105 (Perkin Elmer), and the IC50 values were calculated using Genedata software.

[6] = Before stirring, 3 g product in solution
[7] = dissolved in DCM/MeOH/DMF, concentrated to 3V, 16 h, 40° C.
[8] = dissolved in MeOH, 34 h, 50° C.
[9] = dissolved in MeOH, 42 h, 50° C.
[10] = dissolved in MeOH, 60 h, 50° C.
[11] = dissolved in MeOH, stirred 18 h, 34° C.

## N#Cc1c(-c2cc(NC(=O)c3cc(F)cc(C(F)(F)F)c3)c3c(c2)C(=O)NC3c2cc(F)ccc2Cl)ccc2ncnn12 (racemic) [III-1, N-(3-(2-chloro-5-fluorophenyl)-6-(5-cyano-[1,2,4]triazolo[1,5-a]pyridin-6-yl)-1-oxoisoindolin-4-yl)-3-fluoro-5-(trifluoromethyl)benzamide]
[1]; [6]
  HPLC/RRT Purity, RRT 1.00 (purity of III-1): 96.23%
  HPLC/RRT Purity, impurity at RRT 0.41: 0.10%
  HPLC/RRT Purity, impurity at RRT 0.94: 0.62%
  HPLC/RRT Purity, impurity at RRT 1.37: 1.98%
  HPLC/RRT Purity, impurity at RRT 1.38: 0.31%
[1]; DCM/MeOH/DMF concentrated to 3V, 17 h at 40° C.
  impurity @RRT 1.26 generated: 0.15%
[1]; MeOH, over 18 h at 34° C.
  impurity @RRT 0.74 generated: 0.15%
  purity after stirring in MeOH: 96.0%
[1]; MeOH, over 60 h at 50° C.
  impurity @RRT 0.74: 3.44%
[1]; concentrated to 3V under 40° C., stirred for 17 h at 40° C.
  purity after stirring in DCM/MeOH/DMF: 94.57%
[1]; [7]
  HPLC/RRT Purity, RRT 1.00 (purity of III-1): 94.57%
  HPLC/RRT Purity, impurity at RRT 0.41: 0.11%
  HPLC/RRT Purity, impurity at RRT 0.74: 0.03%
  HPLC/RRT Purity, impurity at RRT 0.94: 0.68%
  HPLC/RRT Purity, impurity at RRT 1.26: 0.33%
  HPLC/RRT Purity, impurity at RRT 1.37: 2.51%
  HPLC/RRT Purity, impurity at RRT 1.38: 0.46%
[1]; [8]
  HPLC/RRT Purity, RRT 1.00 (purity of III-1): 93.53%
  HPLC/RRT Purity, impurity at RRT 0.41: 0.15%
  HPLC/RRT Purity, impurity at RRT 0.74: 2.49%
  HPLC/RRT Purity, impurity at RRT 0.94: 0.67%
  HPLC/RRT Purity, impurity at RRT 0.96: 0.20%
  HPLC/RRT Purity, impurity at RRT 1.26: 0.19%
  HPLC/RRT Purity, impurity at RRT 1.37: 2.13%
  HPLC/RRT Purity, impurity at RRT 1.38: 0.26%
[1]; [9]
  HPLC/RRT Purity, RRT 1.00 (purity of III-1): 92.67%
  HPLC/RRT Purity, impurity at RRT 0.41: 0.17%
  HPLC/RRT Purity, impurity at RRT 0.74: 2.98%
  HPLC/RRT Purity, impurity at RRT 0.94: 0.67%
  HPLC/RRT Purity, impurity at RRT 0.96: 0.25%
  HPLC/RRT Purity, impurity at RRT 1.26: 0.38%
  HPLC/RRT Purity, impurity at RRT 1.37: 2.15%
  HPLC/RRT Purity, impurity at RRT 1.38: 0.20%
[1]; [10]
  HPLC/RRT Purity, RRT 1.00 (purity of III-1): 91.45%
  HPLC/RRT Purity, impurity at RRT 0.41: 0.19%
  HPLC/RRT Purity, impurity at RRT 0.74: 3.45%
  HPLC/RRT Purity, impurity at RRT 0.94: 0.67%
  HPLC/RRT Purity, impurity at RRT 0.96: 0.40%
  HPLC/RRT Purity, impurity at RRT 1.26: 0.58%
  HPLC/RRT Purity, impurity at RRT 1.37: 2.26%
  HPLC/RRT Purity, impurity at RRT 1.38: 0.23%
[1]; [11]
  HPLC/RRT Purity, RRT 1.00 (purity of III-1): 95.98%
  HPLC/RRT Purity, impurity at RRT 0.41: 0.10%
  HPLC/RRT Purity, impurity at RRT 0.74: 0.15%
  HPLC/RRT Purity, impurity at RRT 0.94: 0.59%
  HPLC/RRT Purity, impurity at RRT 1.37: 2.33%
  HPLC/RRT Purity, impurity at RRT 1.38: 0.29%
[2]; anti-solvent precipitation: MeOH / MTBE(4V), stirred at 25° C. for 23 days, SFC immediately after preparation
  ee %(SFC): ee % (SFC): 2.7%*
[2]; equilibration at 50° C. for 10 days in ACN/water(80:20, v/v), SFC immediately after preparation
  ee %(SFC): ee % (SFC): 50.7%*.
[2]; equilibration at 50° C. for 10 days in Acetone/water(60:40, v/v), SFC immediately after preparation
  ee %(SFC): ee % (SFC): 56.9%*
[2]; equilibration at 50° C. for 10 days in EtOH/water(50:50, v/v), SFC after preparation for about 12 h
  ee %(SFC): ee % (SFC): 75.0%#;
[2]; equilibration at 50° C. for 10 days in EtOH/water(50:50, v/v), SFC immediately after preparation
  ee %(SFC): ee % (SFC): 76.9%*,
[2]; equilibration at 50° C. for 10 days in Methanol, SFC immediately after preparation
  ee %(SFC): ee % (SFC): 48.4%*
[2]; slow evaporation from MeOH, SFC immediately after preparation
  ee %(SFC): ee % (SFC): 68.6%*
[2]; solid from crystallization from DMF/Acetone water, SFC immediately after preparation
  ee %(SFC): ee % (SFC): −0.3%*
[3]
  solubility in DCM/MeOH=90:10 mixture: limited solubility
[4]
  purity of solid after storage: 99.1%

## [2H][C@@]1(c2cc(F)ccc2Cl)NC(=O)c2cc(-c3ccc4ncnn4c3C#N)cc(NC(=O)c3cc(F)cc(C(F)(F)F)c3)c21 [IV-2]
[5]
  IC50: ≤ 1000 nM
